# Source: patent US20260085082A1, “KDM1A INHIBITORS FOR THE TREATMENT OF DISEASE” (Imago Biosciences, Inc., priority 2022, published 2026)
# Read-outs that look alike come from different tables or passages of the source.
# Assays:
# LSD1 = LSD1 (Homo sapiens, UniProt O60341); experiment: LSD1 10-dose IC50 fluorescence coupling enzyme assay (HRP/Amplex Red, resorufin); assay type: biochemical; conditions: 10 M histone H3(1-21)K4me2 peptide substrate; 3-fold serial dilution in duplicate starting at 100 μM
# Procedure: Compounds were tested in a 10-dose IC50 mode fluorescence coupling enzyme assay with 3-fold serial dilution in duplicate starting at 100 μM. The production of FAD-dependent H2O2 as a result of demethylase activity of LSD1 on […] histone H3(1-21)K4me2 peptide substrate was measured by coupling with HRP and Amplex Red to yield resorufin (fluorescence measured at Ex/Em=535/590 nm on EnVision, Perkin Elmer).
# MV4;11 cells = experiment: Cell Titer-Glo Luminescent Cell Viability Assay, cell growth inhibition against MV4;11 cells; assay type: cell-based
# Procedure: Cell growth inhibition against MV4;11 cells was confirmed for the synthetic compounds. The Cell Titer-Glo Luminescent Cell Viability Assay (Promega, USA) was used to determine the number of viable cells in culture based on quantitation of the ATP present, which signals the presence of metabolically active cells. This assay was run in a 96-well plate format arrayed in a 10-point dose curve, ranging from 0 to 50 μM with 4-fold dilutions for each compound. Cells are seeded on Day 0 at 3750 cells per well. At Day 5, a portion of each well is assayed for viability according to the Cell Titer-Glo protocol. Briefly, cells/plates were centrifuged at 1100×g for 5 minutes. 100 μL of media was removed from each well and replaced with 100 μL of CellTiter-Glo. The plates were shaken at room temperature for 10 minutes and measured on a luminescence plate reader. Another portion of each well from the Day 5 plate is used to seed a new 96 plate containing fresh compound and media set up in the equivalent 10-point dose curve array in order to continue the cell growth inhibition assay for another 5 days. A final timepoint is collected at Day 10 using the Cell Titer-Glo protocol. Luminescence was detected on an EnVision® Multilabel Plate Reader (Perkin Elmer, Waltham, Mass.) and IC50 determination was made using Graph Pad Prism software.
# [1] = Homo sapiens, MV4-11, MV4;11 cells, Day 10 (re-seeded at Day 5 with fresh compound), 10-point dose curve 0 to 50 μM, read-out: Cell Titer Glo IC50 (10 d)
# [2] = Homo sapiens, MV4-11, 120 h, MV4;11 cells, Day 5, 10-point dose curve 0 to 50 μM, read-out: Cell Titer Glo IC50 (5 d)
Structure (SMILES),IC50 (LSD1) [µM],"IC50 (MV4;11 cells; MV4;11 cells, Day 5, 10-point dose curve 0 to 50 μM, 2,2,2-trifluoroacetate, read-out: Cell Titer Glo IC50 (5 d)) [µM]",IC50 (MV4;11 cells; [2]) [µM],"IC50 (MV4;11 cells; MV4;11 cells, Day 10 (re-seeded at Day 5 with fresh compound), 10-point dose curve 0 to 50 μM, read-out: Cell Titer Glo IC50 (10 d)) [µM]",IC50 (MV4;11 cells; [1]) [µM],"IC50 (MV4;11 cells; Homo sapiens, MV4;11 cells, Day 10 (re-seeded at Day 5 with fresh compound), 10-point dose curve 0 to 50 μM, read-out: Cell Titer Glo IC50 (10 d)) [µM]"
"Cc1ccc(-n2nc(-c3ccc(C#N)c(F)c3)cc2C(=O)N2CCCC(N)C2)cc1 (centres unmarked) [Example 14, 4-(5-(3-Aminopiperidine-1-carbonyl)-1-(p-tolyl)-1H-pyrazol-3-yl)-2-fluorobenzonitrile]",< 0.5,,1 to 10,,,
"COc1ccc(-n2nc(C(=O)N3CCC[C@@H](N)C3)cc2-c2ccc(C#N)c(F)c2)cc1 [Example 18, (R)-4-(3-(3-Aminopiperidine-1-carbonyl)-1-(4-methoxyphenyl)-1H-pyrazol-5-yl)-2-fluorobenzonitrile]",< 0.5,,< 0.5,,< 0.5,
"Cc1ccc(-n2nc(-c3ccc(C#N)c(F)c3)cc2C(=O)N2CCC(N)CC2)cc1 [Example 13, 4-(5-(4-Aminopiperidine-1-carbonyl)-1-(p-tolyl)-1H-pyrazol-3-yl)-2-fluorobenzonitrile]",1 to 10,,1 to 10,,,
"COc1ccc(-n2nc(C(=O)N[C@@H]3CCC[C@@H](N)C3)cc2-c2ccc(C#N)c(F)c2)cc1 [Example 23, N-((1R,3R)-3-aminocyclohexyl)-5-(4-cyano-3-fluorophenyl)-1-(4-methoxyphenyl)-1H-pyrazole-3-carboxamide 2,2,2-trifluoroacetate]",1 to 10,,1 to 10,,,
"COc1ccc(-n2nc(C(=O)N3CC(N)C3)cc2-c2ccc(C#N)c(F)c2)cc1 [Example 31, 4-(3-(3-Aminoazetidine-1-carbonyl)-1-(4-methoxyphenyl)-1H-pyrazol-5-yl)-2-fluorobenzonitrile 2,2,2-trifluoroacetate]",> 10,,> 10,,,
"COc1ccc(-n2nc(C(=O)NC3CCNCC3)cc2-c2ccc(C#N)c(F)c2)cc1 [Example 24, 5-(4-Cyano-3-fluorophenyl)-1-(4-methoxyphenyl)-N-(piperidin-4-yl)-1H-pyrazole-3-carboxamide]",1 to 10,,1 to 10,,,
"COc1ccc(-n2nc(C(=O)N[C@@H]3CCNC3)cc2-c2ccc(C#N)c(F)c2)cc1 [Example 27, (R)-5-(4-cyano-3-fluorophenyl)-1-(4-methoxyphenyl)-N-(pyrrolidin-3-yl)-1H-pyrazole-3-carboxamide 2,2,2-trifluoroacetate]",1 to 10,,1 to 10,,,
"COc1ccc(-n2nc(-c3ccc(C#N)cc3)cc2C(=O)NC2CCCNC2)cc1 (centres unmarked) [Example 5, 3-(4-Cyanophenyl)-1-(4-methoxyphenyl)-N-(piperidin-3-yl)-1H-pyrazole-5-carboxamide 2,2,2-trifluoroacetate]",1 to 10,,> 10,,,
"COc1ccc(-n2nc(C(=O)N3CCCC(N)C3)cc2-c2ccc(C#N)c(F)c2)cc1F (centres unmarked) [Example 35, 4-(3-(3-Aminopiperidine-1-carbonyl)-1-(3-fluoro-4-methoxyphenyl)-1H-pyrazol-5-yl)-2-fluorobenzonitrile]",< 0.5,,< 0.5,,,
"COP(=O)(OC)OCCCOC1CCN(c2ccc(-n3nc(C(=O)N4CCC[C@@H](N)C4)cc3-c3ccc(C#N)c(F)c3)cc2)CC1 [Example 70, (R)-3-((1-(4-(3-(3-aminopiperidine-1-carbonyl)-5-(4-cyano-3-fluorophenyl)-1H-pyrazol-1-yl)phenyl)piperidin-4-yl)oxy)propyl dimethyl phosphate 2,2,2-trifluoroacetate]",< 0.5,,,,,< 0.5
"Cn1cc2cc(-n3nc(C(=O)N4CCC[C@H](N)C4)cc3-c3ccc(C#N)c(F)c3)ccc2n1 [Example 44, (S)-4-(3-(3-aminopiperidine-1-carbonyl)-1-(2-methyl-2H-indazol-5-yl)-1H-pyrazol-5-yl)-2-fluorobenzonitrile 2,2,2-trifluoroacetate]",< 0.5,,< 0.5,,< 0.5,
"COc1ccc(Cn2nc(C(=O)N3CCC[C@@H](N)C3)cc2-c2ccc(C#N)c(F)c2)cc1 [Example 33, (R)-4-(3-(3-aminopiperidine-1-carbonyl)-1-(4-methoxybenzyl)-1H-pyrazol-5-yl)-2-fluorobenzonitrile 2,2,2-trifluoroacetate]",< 0.5,,< 0.5,,,

# Further lines, with some results ahead:
IC50 (LSD1) [µM],"IC50 (MV4;11 cells; MV4;11 cells, Day 5, 10-point dose curve 0 to 50 μM, 2,2,2-trifluoroacetate, read-out: Cell Titer Glo IC50 (5 d)) [µM]",IC50 (MV4;11 cells; [2]) [µM],Structure (SMILES),"IC50 (MV4;11 cells; MV4;11 cells, Day 10 (re-seeded at Day 5 with fresh compound), 10-point dose curve 0 to 50 μM, read-out: Cell Titer Glo IC50 (10 d)) [µM]",IC50 (MV4;11 cells; [1]) [µM],"IC50 (MV4;11 cells; Homo sapiens, MV4;11 cells, Day 10 (re-seeded at Day 5 with fresh compound), 10-point dose curve 0 to 50 μM, read-out: Cell Titer Glo IC50 (10 d)) [µM]"
< 0.5,< 0.5,,"COC1CCN(c2ccc(-n3nc(C(=O)N4CCCC(N)C4)cc3-c3ccc(C#N)c(F)c3)cc2)CC1 (stereo in doubt) [Example 64, (R)-4-(3-(3-aminopiperidine-1-carbonyl)-1-(4-(4-methoxypiperidin-1-yl)phenyl)-1H-pyrazol-5-yl)-2-fluorobenzonitrile 2,2,2-trifluoroacetate]",< 0.5,,
< 0.5,,,"N#Cc1ccc(-c2cc(C(=O)N3CCC[C@@H](N)C3)nn2-c2ccc(N3CCC(=O)CC3)cc2)cc1F [Example 46, (R)-4-(3-(3-aminopiperidine-1-carbonyl)-1-(4-(4-oxopiperidin-1-yl)phenyl)-1H-pyrazol-5-yl)-2-fluorobenzonitrile]",,< 0.5,
> 10,,> 10,"COc1ccc(-n2ncc(C(=O)N3CCCC(N)C3)c2-c2ccc(C#N)cc2)cc1 (centres unmarked) [Example 88, 4-(4-(3-aminopiperidine-1-carbonyl)-1-(4-methoxyphenyl)-1H-pyrazol-5-yl)benzonitrile]",,,
< 0.5,,1 to 10,"COc1ccc(-n2nc(NC(=O)[C@H]3CCNC3)cc2-c2ccc(C#N)c(F)c2)cc1 [Example 95, (S)-N-(5-(4-cyano-3-fluorophenyl)-1-(4-methoxyphenyl)-1H-pyrazol-3-yl)pyrrolidine-3-carboxamide 2,2,2-trifluoroacetate]",,,
< 0.5,,,"CC1(O)CCN(c2ccc(-n3nc(C(=O)N4CCC[C@@H](N)C4)cc3-c3ccc(C#N)c(F)c3)cc2)CC1 [Example 47, (R)-4-(3-(3-aminopiperidine-1-carbonyl)-1-(4-(4-hydroxy-4-methylpiperidin-1-yl)phenyl)-1H-pyrazol-5-yl)-2-fluorobenzonitrile 2,2,2-trifluoroacetate]",,< 0.5,
> 10,,> 10,"COc1ccc(-n2cc(C(=O)N3CCC(N)CC3)c(-c3ccc(C#N)cc3)n2)cc1 [Example 86, 4-(4-(4-aminopiperidine-1-carbonyl)-1-(4-methoxyphenyl)-1H-pyrazol-3-yl)benzonitrile]",,,
< 0.5,,0.5 to 1,"COC1CCN(c2ccc(-n3nc(C(=O)N4CCC[C@H](N)C4)cc3-c3ccc(C#N)c(F)c3)cc2)CC1 [Example 63, (S)-4-(3-(3-aminopiperidine-1-carbonyl)-1-(4-(4-methoxypiperidin-1-yl)phenyl)-1H-pyrazol-5-yl)-2-fluorobenzonitrile 2,2,2-trifluoroacetate]",,< 0.5,
< 0.5,,,"N#Cc1ccc(-c2cc(C(=O)N3CCC[C@@H](N)C3)nn2-c2ccc(-c3cnc4c(c3)OCCO4)cc2)cc1F [Example 84, (R)-4-(3-(3-aminopiperidine-1-carbonyl)-1-(4-(2,3-dihydro-[1,4]dioxino[2,3-b]pyridin-7-yl)phenyl)-1H-pyrazol-5-yl)-2-fluorobenzonitrile 2,2,2-trifluoroacetate]",,< 0.5,
< 0.5,,0.5 to 1,"Cn1cc(-c2ccc(-n3nc(C(=O)N4CCC[C@H](N)C4)cc3-c3ccc(C#N)c(F)c3)cc2)cn1 [Example 65, (S)-4-(3-(3-aminopiperidine-1-carbonyl)-1-(4-(1-methyl-1H-pyrazol-4-yl)phenyl)-1H-pyrazol-5-yl)-2-fluorobenzonitrile 2,2,2-trifluoroacetate]",,< 0.5,
1 to 10,,,"CN1CCN(c2ccc(-n3nc(C(=O)N4CCC[C@@H](N)C4)cc3-c3ccc(C#N)c(F)c3)nc2)CC1 [Example 54, (R)-4-(3-(3-aminopiperidine-1-carbonyl)-1-(5-(4-methylpiperazin-1-yl)pyridin-2-yl)-1H-pyrazol-5-yl)-2-fluorobenzonitrile 2,2,2-trifluoroacetate]",,1 to 10,
< 0.5,,,"COC1CCN(c2ccc(-n3nc(-c4ccc(C#N)c(F)c4)cc3C(=O)N3CCC[C@@H](N)C3)cc2)CC1 [Example 57, (R)-4-(5-(3-aminopiperidine-1-carbonyl)-1-(4-(4-methoxypiperidin-1-yl)phenyl)-1H-pyrazol-3-yl)-2-fluorobenzonitrile 2,2,2-trifluoroacetate]",,1 to 10,
< 0.5,,1 to 10,"COc1ccc(-n2nc(NC(=O)C3CCNC3)cc2-c2ccc(C#N)c(F)c2)cc1 (centres unmarked) [Example 93, N-(5-(4-cyano-3-fluorophenyl)-1-(4-methoxyphenyl)-1H-pyrazol-3-yl)pyrrolidine-3-carboxamide 2,2,2-trifluoroacetate]",,,
